Test systems include A498 renal; CCRF-CEM leukemia; DU-145 prostate; HCC-2998 colon; HCT-116 colon; HCT-15 colon; IGROV1 ovarian; MOLT-4 leukemia; NCI-H226 lung; NCI-H23 lung; NCI/ADR-RES ovarian; RXF 393 renal; SK-MEL-28 melanoma; SK-MEL-5 melanoma; SNB-75 CNS; UACC-257 melanoma; UACC-62 melanoma; UO-31 renal.
What all share (test): NCI-60 cell line screen, 48 h

Each structure is given as a SMILES string.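 All cell lines were grown in 96-well plates and treated with compound for 48 hours. TGI: concentration producing complete growth inhibition.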

In the case of `CCOC(=O)c1cc(Br)c(-c2onc(C)c2Br)n1C`, the TGI was above 100 µM in the experiment on A498 renal; above 100 µM in the experiment with CCRF-CEM leukemia; above 100 µM in the experiment on DU-145 prostate; above 100 µM in the experiment on HCC-2998 colon; 41.6 µM in the experiment with HCT-116 colon; above 100 µM with HCT-15 colon. The TGI with IGROV1 ovarian is above 100 µM; in the experiment with MOLT-4 leukemia, 44.3 µM; in the experiment with NCI-H226 lung it was above 100 µM; in the experiment with NCI-H23 lung, above 100 µM; in the experiment with NCI/ADR-RES ovarian, above 100 µM; in the experiment on RXF 393 renal it was 28.6 µM. Moreover, the TGI in the experiment with SK-MEL-28 melanoma was above 100 µM; in the experiment with SK-MEL-5 melanoma, 32.4 µM; with SNB-75 CNS, 53 µM; in the experiment with UACC-257 melanoma, above 100 µM; in the experiment on UACC-62 melanoma, above 100 µM; in the experiment with UO-31 renal it was above 100 µM.

As for `CC(C)NC(=O)OCc1c(COC(=O)NC(C)C)c(-c2ccc[n+](COC(=O)C(C)(C)C)c2)n2c1CCC2`, the TGI in the experiment with A498 renal is above 91.9 µM; in the experiment on CCRF-CEM leukemia, above 100 µM; with DU-145 prostate, above 100 µM; with HCC-2998 colon, above 100 µM; in the experiment on HCT-116 colon, above 100 µM; with HCT-15 colon, above 100 µM. In addition, the TGI is above 100 µM with IGROV1 ovarian; above 100 µM in the experiment with MOLT-4 leukemia; above 100 µM with NCI-H226 lung; above 100 µM with NCI-H23 lung; above 100 µM in the experiment on NCI/ADR-RES ovarian; above 92.8 µM with RXF 393 renal. Besides, the TGI with SK-MEL-28 melanoma, with SK-MEL-5 melanoma, in the experiment with SNB-75 CNS, in the experiment with UACC-257 melanoma, in the experiment on UACC-62 melanoma and in the experiment with UO-31 renal was above 100 µM in each case.

As to `CCOP(=O)(OCC)C(Nc1ccc(C(=O)O)cc1)c1ccc(C(Nc2ccc(C(=O)O)cc2)P(=O)(OCC)OCC)cc1` (stereo not given), the TGI with A498 renal, in the experiment on CCRF-CEM leukemia, with DU-145 prostate, in the experiment with HCC-2998 colon, in the experiment with HCT-116 colon and in the experiment with HCT-15 colon was above 100 µM each time. Moreover, the TGI with IGROV1 ovarian, with MOLT-4 leukemia, in the experiment with NCI-H226 lung, in the experiment with NCI-H23 lung, in the experiment with NCI/ADR-RES ovarian and with RXF 393 renal was above 100 µM in each case. The TGI in the experiment with SK-MEL-28 melanoma, in the experiment with SK-MEL-5 melanoma, with SNB-75 CNS, in the experiment on UACC-257 melanoma, with UACC-62 melanoma and in the experiment on UO-31 renal was above 100 µM throughout.

Consider `CCn1c2ccccc2c2cc(NC(=O)c3c(NCCNCCO)nc(=O)[nH]c3C)ccc21`, for which the TGI with A498 renal, in the experiment on CCRF-CEM leukemia, in the experiment on DU-145 prostate, in the experiment with HCC-2998 colon, in the experiment with HCT-116 colon and in the experiment on HCT-15 colon was above 100 µM each time. Also, the TGI in the experiment on IGROV1 ovarian, with MOLT-4 leukemia, in the experiment on NCI-H226 lung, in the experiment with NCI-H23 lung, in the experiment with NCI/ADR-RES ovarian and with RXF 393 renal was above 100 µM throughout. For the same compound, the TGI in the experiment on SK-MEL-28 melanoma, in the experiment with SK-MEL-5 melanoma, in the experiment with SNB-75 CNS, with UACC-257 melanoma, in the experiment on UACC-62 melanoma and in the experiment on UO-31 renal was above 100 µM throughout.

`COC(=O)/C=C1/OC(c2ccc(C)cc2)=C(Cl)C1=O`: the TGI in the experiment on A498 renal was 33.6 µM; with CCRF-CEM leukemia, 11.7 µM; in the experiment on DU-145 prostate it was 32.7 µM; with HCC-2998 colon, 34.4 µM; in the experiment with HCT-116 colon, 24.7 µM; with HCT-15 colon it was 26.4 µM. For the same compound, the TGI with IGROV1 ovarian came to 34.4 µM; in the experiment with MOLT-4 leukemia it was 13.8 µM; with NCI-H226 lung, 47.1 µM; in the experiment on NCI-H23 lung, 36.9 µM; in the experiment with NCI/ADR-RES ovarian, 56.1 µM; in the experiment on RXF 393 renal it was 26.6 µM. Moreover, the TGI in the experiment with SK-MEL-28 melanoma was 30.9 µM; with SK-MEL-5 melanoma it was 27.9 µM; in the experiment on SNB-75 CNS, 35.5 µM; in the experiment with UACC-257 melanoma, 43.1 µM; in the experiment with UACC-62 melanoma, 36.9 µM; with UO-31 renal, 31.6 µM.

Take `CCOP(=O)(OCC)C(F)(F)Cc1cnc(C)c2c1COC(C)(C)O2`: the TGI with A498 renal, with CCRF-CEM leukemia, in the experiment with DU-145 prostate, with HCC-2998 colon, in the experiment with HCT-116 colon and in the experiment with HCT-15 colon was above 10 µM each time. Moreover, the TGI in the experiment on IGROV1 ovarian, in the experiment with MOLT-4 leukemia, in the experiment with NCI-H226 lung, with NCI-H23 lung, in the experiment with NCI/ADR-RES ovarian and with RXF 393 renal was above 10 µM each time. The TGI in the experiment on SK-MEL-28 melanoma, in the experiment on SK-MEL-5 melanoma, in the experiment with SNB-75 CNS, with UACC-257 melanoma, in the experiment with UACC-62 melanoma and with UO-31 renal was above 10 µM in each case.

Consider `N#CC(c1ccccc1)N(CCOCCOCCN(C(=O)c1cccc2ccccc12)C(C#N)c1ccccc1)C(=O)c1cccc2ccccc12` (stereo not given), for which the TGI in the experiment with A498 renal, with CCRF-CEM leukemia, in the experiment on DU-145 prostate, with HCC-2998 colon, with HCT-116 colon and with HCT-15 colon was above 100 µM throughout. Further, the TGI with IGROV1 ovarian, with MOLT-4 leukemia, in the experiment with NCI-H226 lung, with NCI-H23 lung, with NCI/ADR-RES ovarian and with RXF 393 renal was above 100 µM throughout. In addition, the TGI with SK-MEL-28 melanoma, in the experiment with SK-MEL-5 melanoma, in the experiment with SNB-75 CNS, in the experiment on UACC-257 melanoma, in the experiment with UACC-62 melanoma and with UO-31 renal was above 100 µM throughout.

On to `COc1ccc(C)cc1Nc1nnc(-c2ccc(N)cc2)s1`, for which the TGI in the experiment with A498 renal, in the experiment on CCRF-CEM leukemia, in the experiment with DU-145 prostate, in the experiment with HCC-2998 colon, in the experiment on HCT-116 colon and in the experiment with HCT-15 colon was above 100 µM throughout. Moreover, the TGI in the experiment on IGROV1 ovarian, with MOLT-4 leukemia, in the experiment on NCI-H226 lung, with NCI-H23 lung, with NCI/ADR-RES ovarian and in the experiment on RXF 393 renal was above 100 µM throughout. The TGI in the experiment with SK-MEL-28 melanoma, with SK-MEL-5 melanoma, in the experiment with SNB-75 CNS, in the experiment with UACC-257 melanoma, with UACC-62 melanoma and with UO-31 renal was above 100 µM throughout.

Consider `O=C(Nc1ccc(Cl)cc1)NS(=O)(=O)c1c(-c2ccccc2)oc2ccccc2c1=O`, for which the TGI in the experiment with A498 renal, in the experiment on CCRF-CEM leukemia, in the experiment with DU-145 prostate, in the experiment on HCC-2998 colon, in the experiment with HCT-116 colon and with HCT-15 colon was above 100 µM in each case. Further, the TGI with IGROV1 ovarian, in the experiment on MOLT-4 leukemia, in the experiment on NCI-H226 lung, with NCI-H23 lung, in the experiment with NCI/ADR-RES ovarian and in the experiment with RXF 393 renal was above 100 µM each time. Also, the TGI was above 100 µM in the experiment with SK-MEL-28 melanoma; above 100 µM in the experiment with SK-MEL-5 melanoma; above 100 µM in the experiment with SNB-75 CNS; above 100 µM with UACC-257 melanoma; 13.6 µM in the experiment with UACC-62 melanoma; above 100 µM in the experiment on UO-31 renal.

Take `COCN1C(=O)[C@@H]2CCCN2C(=O)c2ccc([N+](=O)[O-])cc21`: the TGI in the experiment with A498 renal, in the experiment with CCRF-CEM leukemia, in the experiment on DU-145 prostate, in the experiment with HCC-2998 colon, in the experiment with HCT-116 colon and with HCT-15 colon was above 100 µM each time. Besides, the TGI in the experiment with IGROV1 ovarian, in the experiment on MOLT-4 leukemia, in the experiment with NCI-H226 lung, with NCI-H23 lung, in the experiment with NCI/ADR-RES ovarian and in the experiment with RXF 393 renal was above 100 µM each time. Besides, the TGI with SK-MEL-28 melanoma, in the experiment with SK-MEL-5 melanoma, with SNB-75 CNS, in the experiment with UACC-257 melanoma, with UACC-62 melanoma and with UO-31 renal was above 100 µM each time.

The record behind these values is PubChem BioAssay (NCI).
